Molecular target: Glutamate carboxypeptidase 2 (Homo sapiens, UniProt Q04609)
Experiment: Enzymatic Assay for In Vitro Evaluation of PSMA Inhibitors: The inhibitory activity of all compounds was determined using a fluorescent assay of human PSMA activity. The enzyme used in the assay was purchased from R&D Systems and stored at −80° C. The PSMA activity was assayed in a two-step process. In the first step, aliquots of enzyme (0.2 μg/mL) were incubated for 1 h at 37° C. in 50 mM HEPES, 0.1 M NaCl, pH 7.5, in the presence of 20 μM NAAG and the given inhibitor, in a volume of 250 μL, to allow for the accumulation of glutamate produced in the PSMA reaction. In the second step, the amount of accumulated glutamate was measured using the OPA reaction, and the fluorescence was read with a SpectraMax fluorescent plate reader using excitation at 330 nm and emission at 450 nm. The final Ki values for each inhibitor were calculated from the respective IC50 values using the Cheng and Prusoff equation.

Glutamate carboxypeptidase 2, sequence (Q04609 whole entry): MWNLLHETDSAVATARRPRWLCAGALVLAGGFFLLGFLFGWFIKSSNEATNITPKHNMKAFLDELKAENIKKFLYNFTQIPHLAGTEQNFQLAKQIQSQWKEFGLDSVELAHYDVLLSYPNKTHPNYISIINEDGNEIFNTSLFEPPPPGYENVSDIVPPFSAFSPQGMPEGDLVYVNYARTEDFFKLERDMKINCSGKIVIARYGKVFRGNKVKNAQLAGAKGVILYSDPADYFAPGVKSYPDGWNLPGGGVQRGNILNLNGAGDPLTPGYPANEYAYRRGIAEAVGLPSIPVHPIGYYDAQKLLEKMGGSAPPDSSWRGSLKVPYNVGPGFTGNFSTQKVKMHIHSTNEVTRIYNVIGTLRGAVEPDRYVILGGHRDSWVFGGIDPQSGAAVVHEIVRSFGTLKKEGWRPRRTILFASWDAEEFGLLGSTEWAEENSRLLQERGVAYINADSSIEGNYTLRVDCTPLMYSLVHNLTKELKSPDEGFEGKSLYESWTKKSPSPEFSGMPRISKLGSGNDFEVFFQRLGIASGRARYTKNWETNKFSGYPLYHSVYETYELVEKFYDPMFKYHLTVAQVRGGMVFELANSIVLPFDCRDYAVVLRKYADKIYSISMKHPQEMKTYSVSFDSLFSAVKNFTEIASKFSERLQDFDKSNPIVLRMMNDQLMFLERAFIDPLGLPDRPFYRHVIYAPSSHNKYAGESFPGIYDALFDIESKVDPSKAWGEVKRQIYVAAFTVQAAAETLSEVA

Q: `CN(C(=O)N[C@@H](CCC(=O)O)C(=O)O)[C@@H](CCCCNC(=O)CCCCCn1cc(CCCF)nn1)C(=O)O` was tested. Which Ki did it give?
A: Its Ki is 625 nM.

Reference: ChEMBL document CHEMBL5728233, “PSMA imaging agents” (2021)
